# ChEMBL document CHEMBL3507680, “University of Dundee, Gates Library screen for HepG2 cell viability”
# Test: Human HepG2 cell viability assay in 384 well format
# Assay type: toxicity, cell-based
# Set-up: dose 125 nL, time 70.5 hour; cytotoxicity at 70.5 h: concentration not given beside the values
# Settings: HepG2 cells, read-out: Inhibition
row,SMILES,cytotoxicity at 70.5 h
1,CCCn1nnnc1CSc1nccn1Cc1ccccn1,-13.2%
2,CC(c1ncc(C(C)(C)C)o1)N1CCN(Cc2ccncc2)CC1 (configuration not stated),-12.1%
3,COc1ccc(NC(=O)NCC(C)N2CCc3ccccc32)cc1 (configuration not stated),-11.4%
4,CC(CNC(=O)c1cccc(C#N)c1)N1CCc2ccccc21 (configuration not stated),-11.4%
5,Cc1ccc(C(=O)NC2CCCN(c3ncccn3)C2)cn1 (configuration not stated),19.3%
6,CN(CC(=O)Nc1nc2c(s1)CCCCCC2)C(=O)c1ccco1,-17.3%
7,CNC(=O)NC(=O)C(C)Nc1ccccc1OCCOC (configuration not stated),-10.8%
8,NC(=O)CN(CC(=O)NCc1cccc(Cl)c1)C1CCCC1,-11.2%
9,NC(=O)CN(CC(=O)NCCc1c(F)cccc1F)C1CCCC1,23.5%
10,Cc1noc(C(C)N2CCN(c3ncnc4ccccc34)CC2)n1 (configuration not stated),-13.6%
11,CCN(CC)c1nc2sc(C(=O)NC(C)(C)C(=O)OC)cc2s1,0.56%
12,CCNc1cc2c(nn1)CCN(C(=O)C1Cc3ccccc3O1)C2 (configuration not stated),-12.9%
13,Cn1cc(C2CCCN2C(=O)CS(=O)(=O)C2CCCC2)cn1 (configuration not stated),-8.05%
14,CN(C)c1cc2c(nn1)CCN(C(=O)c1cc3c(s1)CCCC3)C2,13.1%
15,Cc1cccc(NCCNc2ccc(C#N)cn2)n1,-5.87%
16,COc1c(C2CCCN2CCOc2ccccc2C#N)c(C)nn1C (configuration not stated),-0.493%
17,COc1cc(OC)cc(N2CCC(NC(=O)c3ccc[nH]3)CC2)c1,-7.63%
18,Cn1cccc1C(=O)NC1CCN(c2ccc(OC(F)(F)F)cc2)CC1,16.6%
19,COCCNc1ccccc1CNC(=O)NCc1ccc(C)s1,-6.41%
20,CCOCCN1CCN(CCOC)CC1C (configuration not stated),-8.63%
21,CCn1cc(C(=O)N2CCCN(c3cccnn3)CC2)c2ccccc21,14.2%
22,COc1ccnc(N2CCCN(c3nc(C4CC4)ns3)CC2)n1,-9.55%
23,CC(Cc1ccsc1)NC(=O)c1cc(N2CCNC2=O)ccc1F (configuration not stated),-9.62%
24,CN(C)C1CCCN(C(=O)NCCC(C)(C)C)C1 (configuration not stated),16.4%

row,SMILES,cytotoxicity at 70.5 h
1,CCOCCNC1(c2ccc(Cl)cc2)CCOCC1,9.63%
2,CCC(CC)NC(=O)c1cncc(Br)c1,1.03%
3,CCC(C)NC(=O)c1cncc(Br)c1 (configuration not stated),-2.39%
4,CN1N=C(C(=O)N2CCN(c3ncccn3)CC2)CCC1=O,1.03%
5,CC(NC(=O)CNC(=O)OC(C)(C)C)c1ccc(Cl)s1 (configuration not stated),10.9%
6,COc1ccc2c(c1)CCCN2C(=O)CN1CCOC(CN(C)C)C1 (configuration not stated),-4.78%
7,CN(C)C1CCCN(C(=O)NCCNC(=O)C2CCCC2)C1 (configuration not stated),-1.02%
8,Cc1cc(CNc2ccc(C(=O)N3CCc4ccccc43)cn2)on1,-1.24%
9,COCc1ccccc1C(=O)NCC(O)c1ccc(Cl)s1 (configuration not stated),0.31%
10,Cc1ccc(C)c(C(=O)NC2CCC(N3C(=O)CCC3=O)CC2)c1 (configuration not stated),3.79%
11,Cc1[nH]ccc1C(=O)NC1CCC(N2C(=O)CCC2=O)CC1 (configuration not stated),-2.84%
12,Cc1ccc(F)c(C(=O)NC2CCC(N3C(=O)CCC3=O)CC2)c1 (configuration not stated),-0.936%
13,O=C(NC1CCC(N2C(=O)CCC2=O)CC1)c1c[nH]c2ccccc12 (configuration not stated),10.8%
14,Cc1nn(C(C)(C)C)c(=O)n1CC(=O)NCC(F)(F)F,3.06%
15,COc1cc(C2(C(=O)N3CCN(CC(C)O)CC3)CC2)ccc1C (configuration not stated),10.5%
16,Cc1ccc(S(=O)(=O)CCC(=O)N(C)Cc2cnn(C)c2)cc1,-73.6%
17,N#Cc1c(Cl)nsc1NCc1ccnc(OCC(F)(F)F)c1,-44.2%
18,O=C(CNc1ccccc1Cl)Nc1cc(-n2cnnn2)ccc1F,-117%
19,O=C(CCCOc1ccccc1F)NCCCC(=O)Nc1cn[nH]c1,-3.66%
20,Cc1cc(C)n(C2CN(CC(=O)N(C)Cc3ccco3)C2)n1,-6.63%
21,Cc1cn2c(n1)CCC(NC(=O)CCOc1cccc(F)c1)C2 (configuration not stated),-4.07%
22,CCOCC(=O)Nc1cccc(Oc2ccccn2)c1,-3.31%
23,COCCN(Cc1cccnc1)S(=O)(=O)c1cccc(F)c1F,5.02%
24,Cc1ccc(CN(C)C(=O)Cn2nc(-c3ccc(F)cc3)oc2=O)cc1,-7.04%

row,SMILES,cytotoxicity at 70.5 h
1,Cc1ccc(CS(=O)(=O)CC(=O)NCc2ccccc2F)cc1,-15.5%
2,Cc1ccc(C(O)CNC(=O)c2cccnc2O)cc1 (configuration not stated),-12.1%
3,CCOc1ncccc1CNC(=O)CN1CCCCCC1=O,19.7%
4,CC(C)Cc1noc(CN2CCN(C(=O)c3cccs3)CC2)n1,-11.2%
5,Cc1cc(=O)n2ncnc2n1CC(O)c1ccccc1 (configuration not stated),-17.2%
6,Cc1ccccc1-c1cc(NC(=O)NC2CCC(O)CC2)n(CCO)n1 (configuration not stated),-3.45%
7,CC(NC(=O)c1cc(-c2cccc(Cl)c2)no1)C(=O)N(C)C (configuration not stated),-17.3%
8,Cc1cc(=O)n2ncnc2n1CC(O)c1cc(Cl)ccc1Cl (configuration not stated),-22.2%
9,O=C(NC1CC1)c1cc(NC(=O)N2CCSCC2)ccc1Cl,15.9%
10,Cc1cc(=O)n2ncnc2n1CC(O)c1ccccc1F (configuration not stated),-10.7%
11,CC(=O)N1CCN(C(=O)c2cnc(OC(C)C)c(Cl)c2)CC1,-13.6%
12,O=C(Cc1ccc2c(c1)OCO2)N1CCCN(c2nccs2)CC1,-8.59%
13,CCc1cc(NCc2cccnc2N2CCCCC2)n2ncnc2n1,0.666%
14,CC(=O)N1CCCN(C(=O)c2cnc(OC(C)C)c(Cl)c2)CC1,-11.9%
15,O=C(Cc1ccc2c(c1)OCO2)N1CCN(c2ccncc2)CC1,-9.91%
16,CC(C)NC(=O)CCN1CCC(C(=O)c2cc(F)ccc2F)CC1,-7.21%
17,CC(CN1CCCC1=O)NC(=O)c1cc(-c2cccc(Cl)c2)no1 (configuration not stated),-18.5%
18,Cc1ccc(C(=O)N2CCSCC2)cc1NC(=O)NCC1CCC1,-7.96%
19,Cc1n[nH]c(C2CN(C(=O)c3ccc(Cl)o3)CCO2)n1 (configuration not stated),-11.1%
20,Cc1n[nH]c(C2CN(C(=O)c3ccon3)CCO2)n1 (configuration not stated),-10.2%
21,CC1CN(C(=O)Nc2ccc(Cl)c(C(=O)NC3CC3)c2)CC(C)(C)O1 (configuration not stated),-7.92%
22,N#Cc1cccc(CNc2cc(CO)ccc2Cl)c1,-15.1%
23,O=C(c1cccnc1O)N(Cc1cccs1)CC1CCCO1 (configuration not stated),-11.9%
24,CN(C)C(=O)Cc1nc(CN2CCCC2Cn2cccn2)cs1 (configuration not stated),-6.16%

row,SMILES,cytotoxicity at 70.5 h
1,CC(C)Cc1noc(CN2CCCN(C(=O)c3ccccc3Cl)CC2)n1,4.22%
2,CN(Cc1nnc(C2CC2)n1C)C1CCN(Cc2ccccc2)C1 (configuration not stated),17.5%
3,Cc1cc(N2CCN(C(=O)c3cc(Cl)c[nH]3)CC2)nc(C(C)C)n1,-7.83%
4,Cc1cc(F)ccc1S(=O)(=O)N(C)CC(N)=O,-6.18%
5,Cc1ccsc1C(=O)Nc1cnn(CC(=O)NC2CCCC2)c1,23.1%
6,COC(=O)c1ccc(S(=O)(=O)N(C)CC(N)=O)c(Cl)c1,-3.22%
7,Cc1cc(C(=O)Nc2cnn(CC(=O)NC3CCCC3)c2)c(C)s1,-6.94%
8,Cc1noc(C)c1CNC(=O)N1CCC(CN2CCC(C)CC2)CC1,-2.8%
9,Cc1cc(N2CCN(C(=O)c3cc(Cl)c[nH]3)CC2)nc(C)n1,-4.7%
10,Cc1cccc(N2CCN(C(=O)CN3CCC(C(N)=O)CC3)CC2)c1,-2.32%
11,CCN(c1ccc(C(=O)Nc2c(C)nn(C(C)C)c2C)cc1)C(C)C,-7.4%
12,CCOc1cc(C)nc(N2CCN(C(=O)c3cc(Cl)c[nH]3)CC2)n1,-8.74%
13,NC(=O)NC(=O)CCN(Cc1ccccc1)CC1CCOCC1,-2.94%
14,Cc1noc(C)c1CNC(=O)N1CCC(NS(C)(=O)=O)CC1,-3.15%
15,Cc1ccc(C(=O)Nc2cnn(CC(=O)NC3CCCC3)c2)c(=O)[nH]1,-3.7%
16,Cc1ccc(OCC(=O)NCc2ccco2)nc1,-2.92%
17,CCN(CC)c1ccc(NS(=O)(=O)c2cnn(C(C)C)c2)cn1,-6.47%
18,Cc1ccc(OCC(=O)NCC(F)(F)F)nc1,-4.18%
19,COCCCN1CCC(NC(=O)C2CC2)CC1,-4.57%
20,CC(C)(C)c1cnc(CNCC2CCCN2c2cccnn2)o1 (configuration not stated),18.8%
21,CN(Cc1nnc(C2CC2)n1C)C1CCN(CCS(C)(=O)=O)C1 (configuration not stated),-6.94%
22,CCN(CC)C(=O)CN(C)CCn1nc2ccccn2c1=O,-4.24%
23,CC(=O)N1CCCN(CCn2nc3ccccn3c2=O)CC1,-0.882%
24,N#Cc1ncn(CCC(=O)Nc2ccc(F)c(F)c2)n1,-9.3%

row,SMILES,cytotoxicity at 70.5 h
1,CCC(=O)Nc1ccc(C(C)NC(=O)COC)cc1 (configuration not stated),-9.08%
2,O=C(NCCCN1CCOCC1)c1cc(-c2ccccc2)[nH]n1,-1.59%
3,CC(=O)N(c1ccc(C)cc1)c1nc(CN2CCCC(C)C2)cs1 (configuration not stated),12.3%
4,O=C(CCc1ccccn1)N1CCSC2(CCCCC2)C1,3.22%
5,CC(C)=CCN1CCN(C(C)c2cccnc2)CC1 (configuration not stated),-1.42%
6,Cc1ccc(CNC(=O)CN(C)CC2CCN(CCO)CC2)s1,2.24%
7,CC(c1cccnc1)N1CCN(CCCC#N)CC1 (configuration not stated),15%
8,COc1cccc(SCC(=O)N2CCC(N3CCCC3=O)CC2)c1,-6.36%
9,CCN(Cc1ccoc1)C(C(N)=O)c1ccc(C#N)cc1 (configuration not stated),-1.21%
10,COc1ncccc1C(=O)N1CCCC1c1c(C)n[nH]c1C (configuration not stated),37.5%
11,C1CCC(NCC2(N3CCOCC3)CCSC2)C1 (configuration not stated),14.2%
12,CC(=O)c1ccc(S(=O)(=O)N2CCCC2CN2CCCC2)cc1 (configuration not stated),-8.94%
13,CS(=O)(=O)c1nnc(NC(=O)CCc2cc(F)ccc2F)[nH]1,-14.9%
14,CC(=O)N(C)c1nc(CN2CCN(c3nccs3)CC2)cs1,-5.68%
15,Cc1nnc(N2CCN(C(=O)NC3CC3)CC2)c(C(N)=O)c1C,-15.7%
16,Cc1ccsc1CNC(=O)Nc1ccn(CCN2CCOCC2)n1,14.8%
17,O=C1CCc2cc(S(=O)(=O)NC(=O)c3ccc4c(c3)COC4)ccc2N1,-12.1%
18,CSc1ccc(NC(=O)Cc2cccc(O)c2)nc1,-20.9%
19,CN(C(=O)c1ccco1)C1CCC(NC(=O)OC(C)(C)C)CC1 (configuration not stated),-6.4%
20,CN(C(=O)c1ccc[nH]1)C1CCC(NC(=O)OC(C)(C)C)CC1 (configuration not stated),-17.5%
21,COCc1ccc(C(=O)NS(=O)(=O)c2ccc3c(c2)CCC(=O)N3)cc1,17.1%
